Experiment: Intestinal S9 fraction stability, mouse
Protocol: (§1) Reaction mixture, minus cofactors, was prepared as described below. Test article was added into the reaction mixture at a final concentration of 1 μM. […] An aliquot of the reaction mixture (without cofactor cocktail) was equilibrated in a shaking water bath at 37° C. for 3 minutes. The reaction was initiated by the addition of cofactor cocktail, and the mixture was incubated in a shaking water bath at 37° C. Aliquots (100 μL) were withdrawn at 0, 10, 20, 30, and 60 minutes. Test article samples were immediately combined with 300 μL of ice-cold acetonitrile containing 1% formic acid. Control samples were immediately combined with 400 μL of ice-cold 50/50 acetonitrile (ACN)/dH2O containing 0.1% formic acid and internal standard to terminate the reaction. Samples were then mixed and centrifuged to precipitate proteins. Calibration standards were prepared in matched matrix. Samples and standards were assayed by LC-MS/MS using electrospray ionization for both the dosed prodrug and the expected drug (PEA). Analytical conditions are outlined in Appendix 8-1. Test article concentration at each time point was compared to test article concentration at time 0 to determine the percent remaining at each time point. Halflives were calculated using GraphPad software, fitting to a single-phase exponential decay equation.
as §1, with “for 5” for “for 3”, “minutes. Reaction” for “minutes. The reaction”, “and” for “and the”, “both” for “both the”, “Appendix 10-1.” for “Appendix 8-1.”
Reaction mixture, minus cofactors, was prepared as described below. Test article was added into the reaction mixture at a final concentration of 1 μM. […] An aliquot of the reaction mixture (without cofactor cocktail) was equilibrated in a shaking water bath at 37° C. for 3 minutes. Reaction was initiated by the addition of cofactor cocktail, and the mixture was incubated in a shaking water bath at 37° C. Aliquots (100 μL) were withdrawn at 0, 10, 20, 30, and 60 minutes. Test article samples were immediately combined with 300 μL of ice-cold acetonitrile containing 1% formic acid. Control samples were immediately combined with 400 μL of ice-cold 50/50 acetonitrile (ACN)/dH2O containing 0.1% formic acid and internal standard to terminate the reaction. Samples were then mixed and centrifuged to precipitate proteins. Calibration standards were prepared in matched matrix. Samples and standards were assayed by LC-MS/MS using electrospray ionization for both dosed prodrug and expected drug (PEA). Analytical conditions are outlined in Appendix 13-1. Test article concentration at each time point was compared to test article concentration at time 0 to determine the percent remaining at each time point. Halflives were calculated using GraphPad software, fitting to a single-phase exponential decay equation.

[1] = control compound, mouse intestinal S9 fraction

## C[C@]12CC[C@H]3[C@@H](CCC4=CC(=O)CC[C@@]43C)[C@@H]1CC[C@@H]2O [Testosterone, testosterone, reference compound]
[1]
  CLin: < 0.0116 ml/min/mg protein
  CLin, calculated value in parentheses: 0.00767 ml/min/mg protein
male, CD-1, mouse, s9, CLint (ml/min/mg protein), calculated value in parentheses, control compound, mouse intestinal S9 fraction, calculated value beyond duration of experiment
  microsomal CLint: 9.19 µL/min/mg
male, CD-1, mouse, s9, CLint (ml/min/mg protein), control compound, mouse intestinal S9 fraction
  microsomal CLint: < 11.6 µL/min/mg
male, CD-1, mouse, s9, CLint, Control Compound, Mouse intestinal S9 fraction
  microsomal CLint: < 11.6 µL/min/mg
male, CD-1, mouse, s9, CLint, Mouse intestinal S9 fraction, control compound
  microsomal CLint: < 11.6 µL/min/mg
male, CD-1, mouse, s9, Half-life (min), calculated value in parentheses, control compound, mouse intestinal S9 fraction, calculated value beyond duration of experiment
  half-life: 1.25 h
male, CD-1, mouse, s9, Half-life (min), control compound, mouse intestinal S9 fraction
  half-life: > 1 h
male, CD-1, mouse, s9, Half-life, Control Compound, Mouse intestinal S9 fraction
  half-life: > 1 h
male, CD-1, mouse, s9, Half-life, Mouse intestinal S9 fraction
  half-life at 1 μM: > 1 h
male, CD-1, mouse, s9, Half-life, calculated value in parentheses, control compound, mouse intestinal S9 fraction
  half-life: 1.5 h
male, CD-1, mouse, s9, Half-life, control compound, mouse intestinal S9 fraction
  half-life: > 1 h
